Reference: the supplement of paper PMC10307832

How the values were obtained:
Assay in all cases: relative viability (nuclei count vs DMSO), 5 days (fraction); higher = more cells survive
Calu-6 = test system: Calu-6
Procedure, shortened: (§1)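 Lung cancer cell lines in 1536-well plates were dosed by pin tool the day after seeding, either with one drug alone or with a fixed anchor-drug dose plus five library-drug doses (not always all listed) in √10 steps. After 5 days, cells were fixed and their nuclei stained in one step (final 0.05% Triton X-100, 1% formaldehyde, 1 ug/ml Hoechst), then counted on 4× images. Relative viability is the nuclei count in treated wells divided by that in vehicle wells. Values are medians of duplicate plates.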

NCI-H1944 = test system: NCI-H1944
Procedure, shortened: as §1

NCI-H661 = test system: NCI-H661
Procedure, shortened: as §1

SK-LU-1 = test system: SK-LU-1
Procedure, shortened: as §1

IA-LM = test system: IA-LM
Procedure, shortened: as §1

NCI-H1666 = test system: NCI-H1666
Procedure, shortened: as §1

NCI-H1299 = test system: NCI-H1299
Procedure, shortened: as §1

PC-14 = test system: PC-14
Procedure, shortened: as §1

A549 = test system: A549
Procedure, shortened: as §1

EBC-1 = test system: EBC-1
Procedure, shortened: as §1

NCI-H596 = test system: NCI-H596
Procedure, shortened: as §1

NCI-H1703 = test system: NCI-H1703
Procedure, shortened: as §1

Which results are given for `CN1CCN(CCOc2cc(OC3CCOCC3)c3c(Nc4c(Cl)ccc5c4OCO5)ncnc3c2)CC1` [Saracatinib] + CS(=O)(=O)CCNCc1ccc(-c2ccc3ncnc(Nc4ccc(OCc5cccc(F)c5)c(Cl)c4)c3c2)o1 [Lapatinib] (partner 2 µM)?
relative viability (Calu-6; first compound 0.02 µM): 1.08; relative viability (Calu-6; first compound 0.2 µM): 0.839; relative viability (Calu-6; first compound 0.6325 µM): 0.913; relative viability (Calu-6; first compound 2 µM): 0.745; relative viability (NCI-H1944; first compound 0.02 µM): 0.808; relative viability (NCI-H1944; first compound 0.6325 µM): 0.872; relative viability (NCI-H1944; first compound 2 µM): 0.459; relative viability (NCI-H661; first compound 0.02 µM): 0.456; relative viability (NCI-H661; first compound 0.2 µM): 0.552; relative viability (NCI-H661; first compound 0.6325 µM): 0.633; relative viability (NCI-H661; first compound 2 µM): 0.37; relative viability (SK-LU-1; first compound 0.02 µM): 0.818; relative viability (SK-LU-1; first compound 0.2 µM): 0.572; relative viability (SK-LU-1; first compound 0.6325 µM): 0.45; relative viability (SK-LU-1; first compound 2 µM): 0.406; relative viability (IA-LM; first compound 0.02 µM): 0.803; relative viability (IA-LM; first compound 0.2 µM): 0.799; relative viability (IA-LM; first compound 0.6325 µM): 1.19; relative viability (IA-LM; first compound 2 µM): 0.799; relative viability (NCI-H1666; first compound 0.02 µM): 0.686; relative viability (NCI-H1666; first compound 0.2 µM): 0.629; relative viability (NCI-H1666; first compound 0.6325 µM): 0.777; relative viability (NCI-H1666; first compound 2 µM): 0.872; relative viability (NCI-H1299; first compound 0.02 µM): 0.982; relative viability (NCI-H1299; first compound 0.2 µM): 1.02; relative viability (NCI-H1299; first compound 0.6325 µM): 1; relative viability (NCI-H1299; first compound 2 µM): 0.941; relative viability (PC-14; first compound 0.02 µM): 0.334; relative viability (PC-14; first compound 0.2 µM): 0.26; relative viability (PC-14; first compound 0.6325 µM): 0.305; relative viability (PC-14; first compound 2 µM): 0.185; relative viability (A549; first compound 0.02 µM): 1.06; relative viability (A549; first compound 0.2 µM): 1.01; relative viability (A549; first compound 0.6325 µM): 0.812; relative viability (A549; first compound 2 µM): 0.791; relative viability (EBC-1; first compound 0.02 µM): 0.199; relative viability (EBC-1; first compound 0.2 µM): 0.23; relative viability (EBC-1; first compound 0.6325 µM): 0.197; relative viability (EBC-1; first compound 2 µM): 0.212; relative viability (NCI-H596; first compound 0.02 µM): 1.02; relative viability (NCI-H596; first compound 0.2 µM): 1.03; relative viability (NCI-H596; first compound 0.6325 µM): 0.994; relative viability (NCI-H596; first compound 2 µM): 0.796; relative viability (NCI-H1703; first compound 0.02 µM): 0.873; relative viability (NCI-H1703; first compound 0.2 µM): 1.02; relative viability (NCI-H1703; first compound 0.6325 µM): 0.376; relative viability (NCI-H1703; first compound 2 µM): 0.283

Which relative viability (Calu-6; first compound 0.02 µM) does the source give for `CN1CCN(CCOc2cc(OC3CCOCC3)c3c(Nc4c(Cl)ccc5c4OCO5)ncnc3c2)CC1` [Saracatinib] + CS(=O)(=O)N1CCN(Cc2cc3nc(-c4cccc5[nH]ncc45)nc(N4CCOCC4)c3s2)CC1 [Pictilisib] (partner 1 µM) here?
The relative viability was 0.858.

What about the relative viability (Calu-6; first compound 0.2 µM) of the same molecule?
Its relative viability is 0.645.

What about the relative viability (Calu-6; first compound 0.6325 µM) of the same molecule?
Its relative viability is 0.702.

And the relative viability (Calu-6; first compound 2 µM)?
Its relative viability is 0.613.

And the relative viability (NCI-H1944; first compound 0.02 µM)?
The relative viability was 0.335.

What about the relative viability (NCI-H1944; first compound 0.6325 µM) of the same molecule?
Its relative viability is 0.288.

What about the relative viability (NCI-H1944; first compound 2 µM) of the same molecule?
Its relative viability is 0.278.

What about the relative viability (NCI-H661; first compound 0.02 µM) of the same molecule?
Its relative viability is 0.452.

What about the relative viability (NCI-H661; first compound 0.2 µM) of the same molecule?
The relative viability was 0.271.

What about the relative viability (NCI-H661; first compound 0.6325 µM) of the same molecule?
The relative viability was 0.314.

What about the relative viability (NCI-H661; first compound 2 µM) of the same molecule?
Its relative viability is 0.241.

What about the relative viability (SK-LU-1; first compound 0.02 µM) of the same molecule?
The relative viability was 0.443.

What about the relative viability (SK-LU-1; first compound 0.2 µM) of the same molecule?
The relative viability was 0.419.

What about the relative viability (SK-LU-1; first compound 0.6325 µM) of the same molecule?
The relative viability was 0.388.

What about the relative viability (SK-LU-1; first compound 2 µM) of the same molecule?
The relative viability was 0.226.

And the relative viability (IA-LM; first compound 0.02 µM)?
Its relative viability is 0.33.

What about the relative viability (IA-LM; first compound 0.2 µM) of the same molecule?
Its relative viability is 0.445.

And the relative viability (IA-LM; first compound 0.6325 µM)?
The relative viability was 0.515.

What about the relative viability (IA-LM; first compound 2 µM) of the same molecule?
The relative viability was 0.37.

What about the relative viability (NCI-H1666; first compound 0.02 µM) of the same molecule?
Its relative viability is 0.493.

What about the relative viability (NCI-H1666; first compound 0.2 µM) of the same molecule?
Its relative viability is 0.413.

And the relative viability (NCI-H1666; first compound 0.6325 µM)?
The relative viability was 0.563.

What about the relative viability (NCI-H1666; first compound 2 µM) of the same molecule?
Its relative viability is 0.469.

And the relative viability (NCI-H1299; first compound 0.02 µM)?
Its relative viability is 0.69.

And the relative viability (NCI-H1299; first compound 0.2 µM)?
Its relative viability is 0.528.

And the relative viability (NCI-H1299; first compound 0.6325 µM)?
Its relative viability is 0.387.

And the relative viability (NCI-H1299; first compound 2 µM)?
Its relative viability is 0.256.

And the relative viability (PC-14; first compound 0.02 µM)?
The relative viability was 0.593.

And the relative viability (PC-14; first compound 0.2 µM)?
The relative viability was 0.337.

And the relative viability (PC-14; first compound 0.6325 µM)?
Its relative viability is 0.0893.

What about the relative viability (PC-14; first compound 2 µM) of the same molecule?
The relative viability was 0.0627.

What about the relative viability (A549; first compound 0.02 µM) of the same molecule?
The relative viability was 0.491.

What about the relative viability (A549; first compound 0.2 µM) of the same molecule?
The relative viability was 0.412.

What about the relative viability (A549; first compound 0.6325 µM) of the same molecule?
The relative viability was 0.515.

What about the relative viability (A549; first compound 2 µM) of the same molecule?
Its relative viability is 0.399.

What about the relative viability (EBC-1; first compound 0.02 µM) of the same molecule?
Its relative viability is 0.445.

And the relative viability (EBC-1; first compound 0.2 µM)?
The relative viability was 0.397.

What about the relative viability (EBC-1; first compound 0.6325 µM) of the same molecule?
The relative viability was 0.387.

And the relative viability (EBC-1; first compound 2 µM)?
The relative viability was 0.429.

What about the relative viability (NCI-H596; first compound 0.02 µM) of the same molecule?
The relative viability was 0.218.

And the relative viability (NCI-H596; first compound 0.2 µM)?
Its relative viability is 0.429.

And the relative viability (NCI-H596; first compound 0.6325 µM)?
The relative viability was 0.435.

And the relative viability (NCI-H596; first compound 2 µM)?
Its relative viability is 0.319.

And the relative viability (NCI-H1703; first compound 0.02 µM)?
The relative viability was 0.228.

And the relative viability (NCI-H1703; first compound 0.2 µM)?
Its relative viability is 0.242.

And the relative viability (NCI-H1703; first compound 0.6325 µM)?
Its relative viability is 0.181.

And the relative viability (NCI-H1703; first compound 2 µM)?
Its relative viability is 0.203.
